Experimental data published in ChEMBL document CHEMBL1130563, “The synthesis of (R)-1-(2-oxocyclopentyliden)-2-alkanols and the (S)-forms, and their bio-antimutagenic activity against UV-induced Escherichia coli WP2 B/r Trp” (1997).
Calls of active or inactive are those of the source. The calls are words filed in the database; no cut-off is given here.

What was measured:
[1] = test system: Escherichia coli; test: Microbicidal activity against UV-induced Escherichia coli WP2 B/r Trp at a dose of 150 ug/mL; Not active; type: functional, organism-based
[2] = test system: Escherichia coli; test: Bio-antimutagenic activity against UV-induced Escherichia coli WP2 B/r Trp; Not active; type: functional, organism-based
[3] = test system: Escherichia coli; test: Microbicidal activity against UV-induced Escherichia coli WP2 B/r Trp at a dose of 120 ug/mL; Not active; type: functional, organism-based
[4] = test system: Escherichia coli; test: Bio-antimutagenic activity against UV-induced Escherichia coli WP2 B/r Trp; type: functional
[5] = test system: Escherichia coli; test: Compound was tested for half inhibition-dose of mutation frequency of UV-induced Escherichia coli WP2 B/r Trp; type: functional

`CCCCCCCC[C@@H](O)/C=C1/CCCC1=O` was tested, and the Activity [1] was “inactive” and the AD50 [2] was “inactive”.
With `CCCCCC[C@H](O)/C=C1/CCCC1=O` the Activity [3] was “inactive” and the AD50 [4] was 50 µg/mL.
With `CCCCCCCC[C@H](O)/C=C1/CCCC1=O` the Activity [3] was “inactive” and the AD50 [4] was 50 µg/mL.
Compound `CCCCCCCCC(O)/C=C1/CCCC1=O` (stereo not given) has an AD50 [5] of 6.7 µg/mL.
`CCCCCC[C@@H](O)/C=C1/CCCC1=O` was tested, and the Activity [1] was “inactive” and the AD50 [2] was “inactive”.
With `CCCCCCC(O)/C=C1/CCCC1=O` (stereo not given) the AD50 [5] was 79 µg/mL.
